{
  "source": "patent US6737240B1",
  "about": "“Methods of screening for a multi-drug resistance conferring peptide” (Rigel Pharmaceuticals, Inc., priority 1999, dated 2004)",
  "key": {"[1]": {"test_system": "HeLa cells", "test": "Flow cytometric analysis of cellular DNA content (cell cycle)", "format": "cell-based", "conditions": "peptide positive (GFP gated) vs peptide negative cells", "procedure": "RG8.5 peptide expressing cells were growing to 50% confluence. The cells were harvested and processed for flow cytometry of DNA. In the DNA content profile, the bold line represents the peptide negative cells and the grayed area curve represents the RG8.5 peptide positive cells. Cells were gated for GFP expression, FIG. 6B top, as indicated.\nFlow cytometric analysis of cellular DNA content. The RG8.5 expressing cells were grown in the logarithmic phase. The cells were harvested, washed once with PBS and fixed in 2% paraformaldehyde pH7.4 at 4° C. for 30 minutes. After washing with 1 %BSA-PBS, the cells were resuspended in PI staining buffer containing […] RNase, 50 ug/ml PI, 0.1% Triton X100 in 0.1% Na Citrate pH7.4 buffer, RT for 30 min, and analyzed on FACS."}, "[2]": {"test_system": "MRP", "test": "MRP expression in Hela tTA cells", "format": "cell-based", "conditions": "data not shown"}, "[3]": {"test_system": "HeLa cells", "test": "Taxol challenge of RGP8.5 expressing HeLa clone, visualized for cell survival", "format": "cell-based", "conditions": "100 nM Taxol for 48 hours, absence of Doxycycline (peptide expression on)", "procedure": "Subsequently, the cells were incubated with 100 nM Taxol for 48 hours and then visualized for cell survival.\nWe tested to determine whether survival to Taxol challenge correlated with induction of the peptide expression using Dox induction."}, "[4]": {"test_system": "Bcl-xL", "test": "Endogenous anti-apoptotic protein level", "format": "cell-based", "conditions": "cells expressing RGP8.5, presence or absence of Dox; data not shown"}, "[5]": {"test_system": "HeLa cells", "test": "Clonogenic survival assay in naive HeLa cells", "format": "cell-based", "conditions": "Taxol for 48 hours, colonies after two weeks; absence of Dox (peptide on) vs presence of Dox (peptide off)", "procedure": "HeLa cells were infected with a tet-regulatory retroviral vector (Tra) expressing the RGP8.5 peptide or GFP control. After infection, 2×10^5 cells were split into one well of 6-well plate and half of cells were incubated with Dox. The next day the cells were treated with different dosages of Taxol for 48 hours. Two weeks later, the surviving colonies were stained with Giemsa solution and photographed. The cells with Dox were kept in Dox throughout the experiment. This assay has been repeated with the RGP8.5 peptide several times.\nRT-PCR for peptide rescue and MDR1 mRNA level assay. Peptide sequences were rescued by RT-PCR from Taxol-resistant cells and later cloned into a Tra vector (in which the peptide expression was under tetracycline control). Each peptide was re-tested in naive Hela cells by a clonogenic survival assay. For semi-quantitative PCR to measure MDR-1 mRNA level, RiboGreen RNA quantification kit (Molecular Probes) and […] of total RNA were used for reverse transcription. Oligonucleotides for amplification of MDR-1 mRNA were described previously (Chen, G. et al., (1997) J. Biol. Chem., 272, 5974-5982).\nClonogenic survival assay. Viruses carrying the rescued peptides were used to infect Hela cells as described above. After infection, 2×10^5 cells were seeded into single well of 6-well plate w/o Doxycycline (200 ng/ml) in the medium. […]"}, "[6]": {"target": "T1, proteasome alpha type subunit XAPC7 (Homo sapiens, UniProt O14818)", "T1 construct": "expressed in transfected cells; host or cells: yeast (two-hybrid transformants)", "T1 sequence (O14818 1-248)": "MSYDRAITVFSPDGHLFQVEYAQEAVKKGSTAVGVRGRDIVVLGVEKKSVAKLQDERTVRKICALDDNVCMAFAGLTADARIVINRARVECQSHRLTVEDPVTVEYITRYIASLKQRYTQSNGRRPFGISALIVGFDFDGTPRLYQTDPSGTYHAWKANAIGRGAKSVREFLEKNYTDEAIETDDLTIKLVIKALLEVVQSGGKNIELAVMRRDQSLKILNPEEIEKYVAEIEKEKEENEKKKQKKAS", "test": "Yeast two-hybrid screening with RGP8.5 bait", "format": "binding", "conditions": "of 26 positive clones from 20 million transformants", "text": "(§1) Yeast two-hybrid screening. The bait used for two-hybrid screening was RGP8.5 fused to the Gal4 DNA binding domain containing a three glycine linker/spacer. A cDNA library made from a combination of multiple human tissues (brain, lymphocyte, stomach, pancreas, liver, intestine) was used for the screening. 20 million transformants were screened. 27 His^+/LacZ^+ colonies were retrieved for further analysis."}, "[7]": {"target": "T2, proteasome alpha type subunit Zeta (Homo sapiens, UniProt P28066)", "T2 construct": "expressed in transfected cells; host or cells: yeast (two-hybrid transformants)", "T2 sequence (P28066 1-241)": "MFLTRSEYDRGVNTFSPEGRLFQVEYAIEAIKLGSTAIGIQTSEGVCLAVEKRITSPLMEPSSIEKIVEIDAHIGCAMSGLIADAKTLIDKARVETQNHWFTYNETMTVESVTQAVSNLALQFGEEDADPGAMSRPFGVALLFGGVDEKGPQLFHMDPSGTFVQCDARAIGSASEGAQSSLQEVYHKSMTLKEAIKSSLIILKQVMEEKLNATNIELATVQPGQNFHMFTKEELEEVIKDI", "test": "Yeast two-hybrid screening with RGP8.5 bait", "format": "binding", "conditions": "of 26 positive clones from 20 million transformants", "text": "as §1"}, "[8]": {"test_system": "MDR-1", "test": "Rhodamine123 efflux assay", "format": "cell-based", "conditions": "RGP8.5 HeLa clone without Dox; diminished with Dox", "procedure": "FIG. 2D depicts a Rhodamine 123 efflux assay of a RGP8.5 expressing HeLa clone. Cells were incubated with or without 200 ng/ml Dox for 4 days. Subsequently the cells were stained with 1 nM Rhodamine 123 and analyzed on FACS. In the top panels the GFP positive cells (striped peak, top left) were seen to extrude Rhodamine 123 from cells (striped peak, top right). […] The bottom two panels show cells in which the tTA promoter was shut down in the presence of Dox.\nRhodamine123 efflux assay. 2.5×10^5 Hela cells were incubated in 1 ml color-free MEM with 1 mM Rhodamine123 for 15 minutes at 37° C. The cells were spun down and resuspended in 1 ml MEM without Rhodamine123 and incubated for an additional 15 minutes. The Rhodamine123 retention was analyzed on FACS (Lee, J. S. et al., (1994) Mol. Pharmacol., 46, 627-638)."}, "[9]": {"test_system": "HeLa cells", "test": "Growth rate of GFP positive versus GFP negative population", "format": "cell-based", "conditions": "data not shown"}},
  "data": [
    {"substance": "MGEFLIVKVVWGRMVCWV-LVVRRFVLVIVLENSLSSNQGPP [RGP8.5]", "values": [
      {"measurement": "cell cycle distribution", "setting": "[1]", "result": "accumulate at G2/M"},
      {"measurement": "levels of MRP expression", "setting": "[2]", "result": "no effect"},
      {"measurement": "resistance to Taxol treatment", "setting": "[3]", "result": "strong resistance"},
      {"measurement": "Bcl-xL expression level", "setting": "[4]", "result": "same expression level"},
      {"measurement": "survival of HeLa cells in clonogenic survival assay", "setting": "[5]", "result": "enhanced survival"},
      {"measurement": "positive yeast two-hybrid clones encoding XAPC7", "setting": "[6]", "result": 25},
      {"measurement": "positive yeast two-hybrid clones encoding Zeta", "setting": "[7]", "result": 1},
      {"measurement": "Rhodamine 123 efflux", "setting": "[8]", "result": "clearly was able to extrude"},
      {"measurement": "impact on cell growth", "setting": "[9]", "result": "negative impact"}
    ]}
  ]
}
